Laboratory results from patent US11492385B2, “Long-acting co-agonists of the glucagon and GLP-1 receptors” (Merck Sharp & Dohme Corp., priority 2015, dated 2022).
Starred links: 1 amine or outer side, 2 acyl side, 3 side chain; linkers in the order of their positions; H or OH if unused. Non-standard residues stand in square brackets, D forms with d. Residues, ends and D or L forms follow the SMILES beside them. Groups on a side chain read outwards from the residue. *: point of attachment. C19 diacid = O=C(O)CCCCCCCCCCCCCCCCCC(=O)*; C18 diacid = O=C(O)CCCCCCCCCCCCCCCCC(=O)*; C17 diacid = O=C(O)CCCCCCCCCCCCCCCC(=O)*; C16 diacid = O=C(O)CCCCCCCCCCCCCCC(=O)*; γGlu = O=C(O)[C@H](CCC(=O)[*:2])N[*:1]; C14 diacid = O=C(O)CCCCCCCCCCCCC(=O)*; Met(O2) = CS(=O)(=O)CC[C@H](N)C(=O)O; αMeD = C[C@](N)(CC(=O)O)C(=O)O; AEEA = NCCOCCOCC(=O)O; Aib = CC(C)(N)C(=O)O

Assays:
human GLP1R = molecular target: T1, human GLP1R (Homo sapiens, UniProt P43220); assay: cAMP activity assay, cells expressing human GLP1R; assay type: cell-based; conditions: cAMP production, assay buffer with or without 20% human serum (not stated which)
T1 construct: expressed in transfected cells; kept under Blasticidin and Hygromycin selection
T1 sequence (P43220 24-463): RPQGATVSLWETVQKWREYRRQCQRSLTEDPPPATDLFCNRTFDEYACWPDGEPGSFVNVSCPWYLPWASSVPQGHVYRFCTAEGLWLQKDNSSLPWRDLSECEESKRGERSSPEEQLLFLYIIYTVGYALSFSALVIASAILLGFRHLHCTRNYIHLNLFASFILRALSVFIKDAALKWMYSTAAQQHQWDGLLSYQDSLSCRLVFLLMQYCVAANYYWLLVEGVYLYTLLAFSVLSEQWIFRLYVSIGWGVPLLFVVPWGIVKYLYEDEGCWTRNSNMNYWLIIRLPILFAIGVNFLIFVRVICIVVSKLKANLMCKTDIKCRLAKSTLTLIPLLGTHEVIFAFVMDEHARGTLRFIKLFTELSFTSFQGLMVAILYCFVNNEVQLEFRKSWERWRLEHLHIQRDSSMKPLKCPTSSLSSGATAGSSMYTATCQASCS
Summary of the method: (§1)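 cAMP production in human GLP1R- or GCGR-expressing cells was read by luminescence after overnight dark incubation at room temperature. Peptides were given as 10-point DMSO dilution series, with native GLP-1 and glucagon as references. Four-parameter logistic fitting gave EC50.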

human GCGR = molecular target: T2, human GCGR (Homo sapiens, UniProt P47871); assay: cAMP activity assay, cells expressing human GCGR; assay type: cell-based; conditions: for EC50: cAMP production, cells expressing human GCGR, assay buffer with or without 20% human serum (not stated which), read-out: GCGR EC50 human; for hGCGR/hGLP1R (hTone): ratio of human GCGR EC50 to human GLP1R EC50
T2 construct: expressed in transfected cells; kept under Blasticidin and Hygromycin selection
T2 sequence (P47871 26-477): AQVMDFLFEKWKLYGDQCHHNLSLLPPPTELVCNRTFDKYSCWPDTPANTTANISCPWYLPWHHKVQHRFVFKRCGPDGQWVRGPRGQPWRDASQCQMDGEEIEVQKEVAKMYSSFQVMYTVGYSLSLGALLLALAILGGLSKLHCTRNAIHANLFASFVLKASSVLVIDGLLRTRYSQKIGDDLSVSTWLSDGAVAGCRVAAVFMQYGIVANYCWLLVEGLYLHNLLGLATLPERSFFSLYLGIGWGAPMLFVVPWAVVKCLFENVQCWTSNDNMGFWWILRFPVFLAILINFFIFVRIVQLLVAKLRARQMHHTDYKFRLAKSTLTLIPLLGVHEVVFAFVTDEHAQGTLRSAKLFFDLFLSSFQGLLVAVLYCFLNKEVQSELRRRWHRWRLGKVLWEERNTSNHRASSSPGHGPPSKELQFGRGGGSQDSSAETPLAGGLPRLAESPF
Summary of the method: as §1

| SMILES | EC50 (human GLP1R) [nM] | EC50 (human GCGR) [nM] | hGCGR/hGLP1R (hTone) (human GCGR) |
| --- | --- | --- | --- |
| CC(C)C[C@H](NC(=O)[C@H](CC(C)C)NC(=O)[C@H](CCCCN)NC(=O)[C@H](CO)NC(=O)[C@H](Cc1ccc(O)cc1)NC(=O)[C@H](CC(=O)O)NC(=O)[C@H](CO)NC(=O)[C@@H](NC(=O)[C@H](Cc1ccccc1)NC(=O)[C@@H](NC(=O)CNC(=O)[C@H](CCC(N)=O)NC(=O)C(C)(C)NC(=O)[C@@H](N)Cc1c[nH]cn1)[C@@H](C)O)[C@@H](C)O)C(=O)N[C@@H](CC(=O)O)C(=O)N[C@@H](C)C(=O)N[C@@H](CCCNC(=N)N)C(=O)N[C@@H](C)C(=O)N[C@@H](C)C(=O)N[C@@H](CCCCNC(=O)COCCOCCNC(=O)COCCOCCNC(=O)CC[C@H](NC(=O)CCCCCCCCCCCCCCCCC(=O)O)C(=O)O)C(=O)N[C@@H](CC(=O)O)C(=O)N[C@@H](Cc1ccccc1)C(=O)N[C@H](C(=O)N[C@@H](CCC(N)=O)C(=O)N[C@@H](Cc1c[nH]c2ccccc12)C(=O)N[C@@H](CC(C)C)C(=O)N[C@@H](CCS(C)(=O)=O)C(=O)N[C@@](C)(CC(=O)O)C(=O)N[C@H](C(N)=O)[C@@H](C)O)C(C)C [compound 79] (H-H[Aib]QGTFTSDYSKLLDARAAK([AEEA-AEEA-γGlu-C18 diacid])DFVQWL[Met(O2)][αMeD]T-NH2) | 0.84 | 0.69 | 0.8 |
| CC(C)C[C@H](NC(=O)[C@H](Cc1ccc(O)cc1)NC(=O)[C@H](CCCCN)NC(=O)[C@H](CO)NC(=O)[C@H](Cc1ccc(O)cc1)NC(=O)[C@H](CC(=O)O)NC(=O)[C@H](CO)NC(=O)[C@@H](NC(=O)[C@H](Cc1ccccc1)NC(=O)[C@@H](NC(=O)CNC(=O)[C@H](CCC(N)=O)NC(=O)C(C)(C)NC(=O)[C@@H](N)Cc1c[nH]cn1)[C@@H](C)O)[C@@H](C)O)C(=O)N[C@@H](CC(=O)O)C(=O)N[C@@H](C)C(=O)N[C@@H](CCCNC(=N)N)C(=O)N[C@@H](C)C(=O)N[C@@H](C)C(=O)N[C@@H](CCC(N)=O)C(=O)N[C@@H](CCCCNC(=O)COCCOCCNC(=O)COCCOCCNC(=O)CC[C@H](NC(=O)CCCCCCCCCCCCCCC(=O)O)C(=O)O)C(=O)N[C@@H](Cc1ccccc1)C(=O)N[C@H](C(=O)N[C@@H](CCC(N)=O)C(=O)N[C@@H](Cc1c[nH]c2ccccc12)C(=O)N[C@@H](CC(C)C)C(=O)N[C@@H](CC(C)C)C(=O)N[C@@H](CC(=O)O)C(=O)N[C@H](C(N)=O)[C@@H](C)O)C(C)C [compound 18] (H-H[Aib]QGTFTSDYSKYLDARAAQK([AEEA-AEEA-γGlu-C16 diacid])FVQWLLDT-NH2) | 0.03 | 0.07 | 2.19 |
| CC(C)C[C@H](NC(=O)[C@H](Cc1ccc(O)cc1)NC(=O)[C@H](CCCCN)NC(=O)[C@H](CO)NC(=O)[C@H](Cc1ccc(O)cc1)NC(=O)[C@H](CC(=O)O)NC(=O)[C@H](CO)NC(=O)[C@@H](NC(=O)[C@H](Cc1ccccc1)NC(=O)[C@@H](NC(=O)CNC(=O)[C@H](CCC(N)=O)NC(=O)C(C)(C)NC(=O)[C@@H](N)Cc1c[nH]cn1)[C@@H](C)O)[C@@H](C)O)C(=O)N[C@@H](CC(=O)O)C(=O)N[C@@H](C)C(=O)N[C@@H](CCCNC(=N)N)C(=O)N[C@@H](C)C(=O)N[C@@H](C)C(=O)N[C@@H](CCC(N)=O)C(=O)N[C@@H](CCCCNC(=O)COCCOCCNC(=O)COCCOCCNC(=O)CC[C@H](NC(=O)CCCCCCCCCCCCCCCCCC(=O)O)C(=O)O)C(=O)N[C@@H](Cc1ccccc1)C(=O)N[C@H](C(=O)N[C@@H](CCC(N)=O)C(=O)N[C@@H](Cc1c[nH]c2ccccc12)C(=O)N[C@@H](CC(C)C)C(=O)N[C@@H](CCS(C)(=O)=O)C(=O)N[C@@H](CC(=O)O)C(=O)N[C@H](C(N)=O)[C@@H](C)O)C(C)C [compound 46] (H-H[Aib]QGTFTSDYSKYLDARAAQK([AEEA-AEEA-γGlu-C19 diacid])FVQWL[Met(O2)]DT-NH2; N-terminus assumed) | 0.28 | 0.5 | 1.83 |
| CC(C)C[C@H](NC(=O)[C@H](Cc1ccc(O)cc1)NC(=O)[C@H](CCCCN)NC(=O)[C@H](CO)NC(=O)[C@H](Cc1ccc(O)cc1)NC(=O)[C@H](CC(=O)O)NC(=O)[C@H](CO)NC(=O)[C@@H](NC(=O)[C@H](Cc1ccccc1)NC(=O)[C@@H](NC(=O)CNC(=O)[C@H](CCC(N)=O)NC(=O)C(C)(C)NC(=O)[C@@H](N)Cc1c[nH]cn1)[C@@H](C)O)[C@@H](C)O)C(=O)N[C@@H](CC(=O)O)C(=O)N[C@@H](C)C(=O)N[C@@H](CCCNC(=N)N)C(=O)N[C@@H](C)C(=O)N[C@@H](C)C(=O)N[C@@H](CCC(N)=O)C(=O)N[C@@H](CCCCNC(=O)COCCOCCNC(=O)COCCOCCNC(=O)CC[C@H](NC(=O)CCCCCCCCCCCCCCCC(=O)O)C(=O)O)C(=O)N[C@@H](Cc1ccccc1)C(=O)N[C@H](C(=O)N[C@@H](CCC(N)=O)C(=O)N[C@@H](Cc1c[nH]c2ccccc12)C(=O)N[C@@H](CC(C)C)C(=O)N[C@@H](CCS(C)(=O)=O)C(=O)N[C@@H](CC(=O)O)C(=O)N[C@H](C(N)=O)[C@@H](C)O)C(C)C [compound 48] (H-H[Aib]QGTFTSDYSKYLDARAAQK([AEEA-AEEA-γGlu-C17 diacid])FVQWL[Met(O2)]DT-NH2) | 0.05 | 0.05 | 1.10 |
| CC(C)C[C@H](NC(=O)[C@H](Cc1ccc(O)cc1)NC(=O)[C@H](CCCCN)NC(=O)[C@H](CO)NC(=O)[C@H](Cc1ccc(O)cc1)NC(=O)[C@H](CC(=O)O)NC(=O)[C@H](CO)NC(=O)[C@@H](NC(=O)[C@H](Cc1ccccc1)NC(=O)[C@@H](NC(=O)CNC(=O)[C@H](CCC(N)=O)NC(=O)C(C)(C)NC(=O)[C@@H](N)Cc1c[nH]cn1)[C@@H](C)O)[C@@H](C)O)C(=O)N[C@@H](CC(=O)O)C(=O)N[C@@H](C)C(=O)N[C@@H](CCCNC(=N)N)C(=O)N[C@@H](C)C(=O)N[C@@H](C)C(=O)N[C@@H](CCC(N)=O)C(=O)N[C@@H](CCCCNC(=O)COCCOCCNC(=O)COCCOCCNC(=O)CC[C@H](NC(=O)CCCCCCCCCCCCCCCCC(=O)O)C(=O)O)C(=O)N[C@@H](Cc1ccccc1)C(=O)N[C@H](C(=O)N[C@@H](CCC(N)=O)C(=O)N[C@@H](Cc1c[nH]c2ccccc12)C(=O)N[C@@H](CC(C)C)C(=O)N[C@@H](CCS(C)(=O)=O)C(=O)N[C@@](C)(CC(=O)O)C(=O)N[C@H](C(N)=O)[C@@H](C)O)C(C)C [compound 71] (H-H[Aib]QGTFTSDYSKYLDARAAQK([AEEA-AEEA-γGlu-C18 diacid])FVQWL[Met(O2)][αMeD]T-NH2) | 0.17 | 0.13 | 1 |
| CC(C)C[C@H](NC(=O)[C@H](Cc1ccc(O)cc1)NC(=O)[C@H](CCCCN)NC(=O)[C@H](CO)NC(=O)[C@H](Cc1ccc(O)cc1)NC(=O)[C@H](CC(=O)O)NC(=O)[C@H](CO)NC(=O)[C@@H](NC(=O)[C@H](Cc1ccccc1)NC(=O)[C@@H](NC(=O)CNC(=O)[C@H](CCC(N)=O)NC(=O)[C@@H](CO)NC(=O)[C@@H](N)Cc1c[nH]cn1)[C@@H](C)O)[C@@H](C)O)C(=O)N[C@@H](CC(=O)O)C(=O)N[C@@H](C)C(=O)N[C@@H](CCCNC(=N)N)C(=O)N[C@@H](C)C(=O)N[C@@H](C)C(=O)N[C@@H](CCC(N)=O)C(=O)N[C@@H](CCCCNC(=O)COCCOCCNC(=O)COCCOCCNC(=O)CC[C@H](NC(=O)CCCCCCCCCCCCCCC(=O)O)C(=O)O)C(=O)N[C@@H](Cc1ccccc1)C(=O)N[C@H](C(=O)N[C@@H](CCC(N)=O)C(=O)N[C@@H](Cc1c[nH]c2ccccc12)C(=O)N[C@@H](CC(C)C)C(=O)N[C@@H](CC(C)C)C(=O)N[C@@H](CC(=O)O)C(=O)N[C@H](C(N)=O)[C@@H](C)O)C(C)C [compound 3] (H-H[dS]QGTFTSDYSKYLDARAAQK([AEEA-AEEA-γGlu-C16 diacid])FVQWLLDT-NH2) | 0.2 | 0.05 | 0.23 |
| CC(C)C[C@H](NC(=O)[C@H](Cc1c[nH]c2ccccc12)NC(=O)[C@H](CCCCNC(=O)COCCOCCNC(=O)COCCOCCNC(=O)CC[C@H](NC(=O)CCCCCCCCCCCCCCCCC(=O)O)C(=O)O)NC(=O)[C@@H](NC(=O)[C@H](Cc1ccccc1)NC(=O)[C@H](CC(=O)O)NC(=O)[C@H](CCC(N)=O)NC(=O)[C@H](C)NC(=O)[C@H](C)NC(=O)[C@H](CCCNC(=N)N)NC(=O)C(C)(C)NC(=O)[C@H](CC(=O)O)NC(=O)[C@H](CC(C)C)NC(=O)[C@H](Cc1ccc(O)cc1)NC(=O)[C@H](CCCCN)NC(=O)[C@H](CO)NC(=O)[C@H](Cc1ccc(O)cc1)NC(=O)[C@H](CC(=O)O)NC(=O)[C@H](CO)NC(=O)[C@@H](NC(=O)[C@H](Cc1ccccc1)NC(=O)[C@@H](NC(=O)CNC(=O)[C@H](CCC(N)=O)NC(=O)C(C)(C)NC(=O)[C@@H](N)Cc1c[nH]cn1)[C@@H](C)O)[C@@H](C)O)C(C)C)C(=O)N[C@@H](CCS(C)(=O)=O)C(=O)N[C@@H](CC(=O)O)C(=O)N[C@H](C(N)=O)[C@@H](C)O [compound 68] (H-H[Aib]QGTFTSDYSKYLD[Aib]RAAQDFVK([AEEA-AEEA-γGlu-C18 diacid])WL[Met(O2)]DT-NH2) | 0.866 | 0.595 | 0.7 |
| CC(C)C[C@H](NC(=O)[C@H](Cc1ccc(O)cc1)NC(=O)[C@H](CCCCN)NC(=O)[C@H](CO)NC(=O)[C@H](Cc1ccc(O)cc1)NC(=O)[C@H](CC(=O)O)NC(=O)[C@H](CO)NC(=O)[C@@H](NC(=O)[C@H](Cc1ccccc1)NC(=O)[C@@H](NC(=O)CNC(=O)[C@H](CCC(N)=O)NC(=O)C(C)(C)NC(=O)[C@@H](N)Cc1c[nH]cn1)[C@@H](C)O)[C@@H](C)O)C(=O)N[C@@H](CC(=O)O)C(=O)N[C@@H](C)C(=O)N[C@@H](CCCNC(=N)N)C(=O)N[C@@H](C)C(=O)N[C@@H](C)C(=O)N[C@@H](CCCCNC(=O)COCCOCCNC(=O)COCCOCCNC(=O)CC[C@H](NC(=O)CCCCCCCCCCCCC(=O)O)C(=O)O)C(=O)N[C@@H](CC(=O)O)C(=O)N[C@@H](Cc1ccccc1)C(=O)N[C@H](C(=O)N[C@@H](CCC(N)=O)C(=O)N[C@@H](Cc1c[nH]c2ccccc12)C(=O)N[C@@H](CC(C)C)C(=O)N[C@@H](CCS(C)(=O)=O)C(=O)N[C@@H](CC(=O)O)C(=O)N[C@H](C(N)=O)[C@@H](C)O)C(C)C [compound 49] (H-H[Aib]QGTFTSDYSKYLDARAAK([AEEA-AEEA-γGlu-C14 diacid])DFVQWL[Met(O2)]DT-NH2) | 0.02 | 0.04 | 1.91 |
